Where two headings read alike, the source gives them in different places.
Assays:
[1] = Pharmacokinetics in plasma after a single intravenous administration to beagle dogs (LC-MS/MS, non-compartmental analysis); format: in vivo, beagle dog; conditions: for C0 / Vd / clearance / k el / half-life: both sexes, beagle, dog, plasma, iv; for C0 / AUC0-inf / AUC0-tlast / AUC%extrap: beagle dog plasma; for k el: read-out: Ke (converted)
Description: Aliquots (0.05 mL) of each plasma sample were added to glass tubes followed by 0.05 mL of IS (ropivacaine 100 ng/mL). The tubes were vortexed for 5 s and 0.1 mL of acetonitrile were added. The samples were vortexed for 40 s, again, and then centrifuged at 2000 ×g for 5 min. The obtained supernatants were transferred to microvials for analysis.
Neuronina-1 was separated in a 150 mm × 4.6 mm x 5 μm Phenomenex C18Luna reversed phase analytical column (Phenomenex Inc., CA, United States). The temperature of the column was maintained constant at 65°C. The mobile phase used was composed by methanol/acetonitrile/water (50/40/10, v/v/v) + 0.1% of formic acid + 1 M ammonium formate at a flow rate of 1 mL/min (split 1:3). The auto-sampler was maintained at room temperature.
The mass spectrometer (Quattro Micro – Micromass, Waters, United Kingdom) equipped with an electrospray source in the ESI positive polarity mode (ES+) was configured for multiple reaction monitoring (MRM) to monitor the transitions 365.3 > 83.9 and 275.2 > 126.0, for neurounina-1 and ropivacaine, respectively. […] To optimize all MS parameters, a standard solution of the analyte and IS was infused into the mass spectrometer. The optimized values of ion spray voltage, collision energy, and cone voltage were, respectively 2800 (V), 20 (eV), and 20 (V) for neurounina-1 and 2800 (V), 15 (eV), and 15 (V) for ropivacaine. Data acquisition and analysis were performed using the software Masslynx 4.0 (Waters Corporation, Milford, MA, United States).
(§1) Beagle dogs (n = 5) of both sexes, aged between 2 and 3 years old, weighing between 10 and 14 kg were provided by Camilo Castelo Branco University, Brazil. The dogs were housed in Domingos Alves Veterinary Hospital in individual rooms and fed with a standard canine food. They had free access to water. The dogs underwent rigorous veterinary control and were all considered healthy based on physical examination and laboratory analysis performed before initiation and after completion of each occasion of the study. At the end of the study, the animals were returned to their habitat. This study was carried out in accordance with the recommendations of the general ethical guidelines established by the Brazilian Society for Laboratory Animal Science (SBCAL). The protocol was approved by the Committee for Ethics in Animal Use – State University of Campinas (CEUA/UNICAMP, protocol n° 3340-1).
(§2) After an overnight (8 h) fasting, a single intravenous dose of 0.1 mg/kg, 0.3 mg/kg, or 1 mg/kg neurounina-1 formulation was administered to beagle dogs, with 7 days washout period between each dose administration. Blood samples (5 mL) from a suitable antecubital vein were collected into heparin-containing tubes before and 0.03, 0.08, 0.17, 0.25, 0.33, 0.5, 1, 2, 3, 4, 6, 8, 12, and 24 h after the administration of each dose. A total of 210 mL of blood was collected during the study. The blood samples treated with sodium heparin were centrifuged at approximately 2000 ×g for 10 min at 4°C and the plasma was stored at -20°C until analysis.
Non-compartmental analysis was used to determine the pharmacokinetic parameters of neurounina-1 after the intravenous administration. The concentration at time zero (C0) was estimated by back-extrapolating from the elimination curve. The area under the plasma concentration vs. time curves from zero to the last detectable concentration (AUC0-tlast) were calculated by applying the linear-log trapezoid rule. Extrapolation of these areas to infinity (AUC0-inf) was done by adding the value Clast/ke to the calculated AUC0-tlast (where Clast = the last detectable concentration). Clearance (CL) was calculated by the formula dose/AUC0-inf. Volume of distribution (Vd) was calculated by the formula CL/ke. The WinNonlin software, version 6.4 (Pharsight Corp, Mountain View, CA, United States) was used. Statistical analysis was performed using GraphPad Prism software, version 3.2 (GraphPad Software, San Diego, California, United States).

[2] = Stability tests in beagle dog plasma (QC samples); format: in vitro ADME
Description: To assess stability, QC plasma samples (1.5 and 400.0 ng/mL) were subjected to short-term (6 h) incubation at room temperature; four freeze/thaw (-20°C) cycles and 52 h in the autosampler at room temperature. Subsequently, the neurounina-1 concentrations were measured and compared with freshly prepared samples.

[3] = system: beagle dogs; experiment: Tolerability in beagle dogs after intravenous administration; format: in vivo, beagle dog; conditions: single i.v. 0.1, 0.3 and 1 mg/kg
Description: as §1
as §2, with “The blood samples treated with sodium heparin were centrifuged at approximately 2000 ×g for 10 min at 4°C and the plasma was stored at -20°C until analysis.” left out

[4] = system: NCX1 and NCX2; parameters: method as in Molinaro et al., 2013; conditions: ref Molinaro et al., 2013; cited from earlier work
[5] = system: transient middle cerebral artery occlusion (tMCAO); parameters: method as in Molinaro et al., 2013; conditions: ref Molinaro et al., 2013, cited from earlier work
[6] = ref Molinaro et al., 2013; cited from earlier work
[7] = 0.1 mg/kg, mean, 0.1 mg/kg single i.v., beagle dog, n = 5
[8] = 0.1 mg/kg, median, 0.1 mg/kg single i.v., beagle dog, n = 5
[9] = 0.3 mg/kg, mean, 0.3 mg/kg single i.v., beagle dog, n = 5
[10] = 0.3 mg/kg, median, 0.3 mg/kg single i.v., beagle dog, n = 5
[11] = 1 mg/kg, mean, 1 mg/kg single i.v., beagle dog, n = 5
[12] = 1 mg/kg, median, 1 mg/kg single i.v., beagle dog, n = 5
[13] = mean, 0.1 mg/kg single i.v., n = 5
[14] = mean, 0.3 mg/kg single i.v., n = 5
[15] = mean, 1 mg/kg single i.v., n = 5
[16] = median, 0.1 mg/kg single i.v., n = 5
[17] = median, 0.3 mg/kg single i.v., n = 5
[18] = median, 1 mg/kg single i.v., n = 5

Which C0 ([1]; 0.1 mg/kg, mean, 0.1 mg/kg single i.v., back-extrapolated, n = 5) does the source give for O=C1CN=C(c2ccccc2)c2cc([N+](=O)[O-])ccc2N1CN1CCCC1 [Neurounina-1, 7-nitro-5-phenyl-1-(pyrrolidin-1-ylmethyl)-1H-benzo[e][1,4]diazepin-2(3H)-one] here?
Its C0 is 32.5 ng/mL.

And the Vd [1, 7]?
Its Vd is 130 L.

What about the clearance [1, 7] of the same molecule?
Its clearance is 771 mL/min.

What about the k el [1, 7] of the same molecule?
The k el was 9.72e-05 s⁻¹.

What about the half-life ([1]; 0.1 mg/kg, mean, 0.1 mg/kg single i.v., beagle dog, n = 5, read-out: t1/2 (converted)) of the same molecule?
Its half-life is 128 min.

And the C0 ([1]; 0.1 mg/kg, median, 0.1 mg/kg single i.v., n = 5)?
The C0 was 30.6 ng/mL.

And the Vd [1, 8]?
The Vd was 127 L.

What about the clearance [1, 8] of the same molecule?
The clearance was 795 mL/min.

What about the k el [1, 8] of the same molecule?
Its k el is 0.000106 s⁻¹.

What about the half-life ([1]; 0.1 mg/kg, median, 0.1 mg/kg single i.v., beagle dog, n = 5, read-out: t1/2 (converted)) of the same molecule?
Its half-life is 100 min.

What about the C0 ([1]; 0.3 mg/kg, mean, 0.3 mg/kg single i.v., back-extrapolated, n = 5) of the same molecule?
Its C0 is 111 ng/mL.

What about the Vd [1, 9] of the same molecule?
Its Vd is 154 L.

What about the clearance [1, 9] of the same molecule?
Its clearance is 793 mL/min.

What about the k el [1, 9] of the same molecule?
The k el was 8.33e-05 s⁻¹.

What about the half-life ([1]; 0.3 mg/kg, mean, 0.3 mg/kg single i.v., beagle dog, n = 5, read-out: t1/2 (converted)) of the same molecule?
The half-life was 152 min.

What about the C0 ([1]; 0.3 mg/kg, median, 0.3 mg/kg single i.v., n = 5) of the same molecule?
The C0 was 100 ng/mL.

And the Vd [1, 10]?
Its Vd is 103 L.

And the clearance [1, 10]?
Its clearance is 591 mL/min.

And the k el [1, 10]?
Its k el is 8.61e-05 s⁻¹.

And the half-life ([1]; 0.3 mg/kg, median, 0.3 mg/kg single i.v., beagle dog, n = 5, read-out: t1/2 (converted))?
The half-life was 130 min.

What about the C0 ([1]; 1 mg/kg, mean, 1 mg/kg single i.v., back-extrapolated, n = 5) of the same molecule?
Its C0 is 223 ng/mL.

And the Vd [1, 11]?
Its Vd is 211 L.

And the clearance [1, 11]?
The clearance was 1150 mL/min.

What about the k el [1, 11] of the same molecule?
The k el was 9.17e-05 s⁻¹.

And the half-life ([1]; 1 mg/kg, mean, 1 mg/kg single i.v., beagle dog, n = 5, read-out: t1/2 (converted))?
Its half-life is 122 min.

What about the C0 ([1]; 1 mg/kg, median, 1 mg/kg single i.v., n = 5) of the same molecule?
Its C0 is 197 ng/mL.

And the Vd [1, 12]?
The Vd was 224 L.

And the clearance [1, 12]?
The clearance was 1250 mL/min.

What about the k el [1, 12] of the same molecule?
Its k el is 8.89e-05 s⁻¹.

What about the half-life ([1]; 1 mg/kg, median, 1 mg/kg single i.v., beagle dog, n = 5, read-out: t1/2 (converted)) of the same molecule?
Its half-life is 116 min.

What about the half-life ([1]; beagle dog, overall statement, read-out: half-life (converted)) of the same molecule?
The half-life was roughly 120 min.

And the AUC0-inf [1, 13]?
Its AUC0-inf is 30.10 ng^∗h/mL.

And the AUC0-tlast [1, 13]?
The AUC0-tlast was 26.10 ng^∗h/mL.

What about the t1/2 ([1]; mean, 0.1 mg/kg single i.v., beagle dog, n = 5, 0.1 mg/kg) of the same molecule?
Its t1/2 is 2.02 h.

What about the AUC0-inf [1, 14] of the same molecule?
Its AUC0-inf is 122.42 ng^∗h/mL.

And the AUC0-tlast [1, 14]?
The AUC0-tlast was 115.81 ng^∗h/mL.

And the t1/2 ([1]; mean, 0.3 mg/kg single i.v., beagle dog, n = 5, 0.3 mg/kg)?
The t1/2 was 2.36 h.

And the AUC0-inf [1, 15]?
Its AUC0-inf is 263.06 ng^∗h/mL.

And the AUC0-tlast [1, 15]?
Its AUC0-tlast is 257.28 ng^∗h/mL.

And the t1/2 ([1]; mean, 1 mg/kg single i.v., beagle dog, n = 5, 1 mg/kg)?
Its t1/2 is 2.13 h.

And the AUC0-inf [1, 16]?
Its AUC0-inf is 26.44 ng^∗h/mL.

And the AUC0-tlast [1, 16]?
The AUC0-tlast was 23.00 ng^∗h/mL.

And the AUC%extrap [1, 16]?
Its AUC%extrap is 3.42%.

And the AUC0-inf [1, 17]?
The AUC0-inf was 133.20 ng^∗h/mL.

What about the AUC0-tlast [1, 17] of the same molecule?
The AUC0-tlast was 127.76 ng^∗h/mL.

And the AUC%extrap [1, 17]?
Its AUC%extrap is 4.56%.

And the AUC0-inf [1, 18]?
The AUC0-inf was 184.06 ng^∗h/mL.

And the AUC0-tlast [1, 18]?
The AUC0-tlast was 179.65 ng^∗h/mL.

And the AUC%extrap [1, 18]?
Its AUC%extrap is 4.55%.

And the “Dose linearity of pharmacokinetics” value ([1]; single i.v. doses up to 1.0 mg/kg, beagle dog)?
Its value is “Linear pharmacokinetics”.

What about the “Stability, Accuracy(%)” value ([2]; Freeze/thaw (4cycles, -20°C), 1.5 ng/mL, beagle dog plasma) of the same molecule?
The value was 92.7%.

And the “Stability, Accuracy(%)” value ([2]; Freeze/thaw (4cycles, -20°C), 400 ng/mL, beagle dog plasma)?
The value was 101.3%.

And the “Stability, Accuracy(%)” value ([2]; Post-processing (52 h) in autosampler, 1.5 ng/mL, processed beagle dog plasma)?
Its value is 96.0%.

What about the “Stability, Accuracy(%)” value ([2]; Post-processing (52 h) in autosampler, 400 ng/mL, processed beagle dog plasma) of the same molecule?
Its value is 101.8%.

And the “Stability, Accuracy(%)” value ([2]; Short-term (6 h) at room temperature, 1.5 ng/mL, beagle dog plasma)?
The value was 94.7%.

And the “Stability, Accuracy(%)” value ([2]; Short-term (6 h) at room temperature, 400 ng/mL, beagle dog plasma)?
The value was 106.5%.

What about the “Degradation in stability tests” value ([2]; four freezing and thawing cycles, 6 h at room temperature, 52 h after processing in the self-injector, beagle dog plasma) of the same molecule?
The value was “no significant degradation”.

And the “tolerability, behavior” value [3]?
The value was “well tolerated”.

And the “half maximal effective concentration (EC50)” value [4]?
The value was “in the picomolar to low nanomolar range”.

And the “time after ischemia induction at which the effect was still notable” value ([5]; 0.003 to 30 μg/kg intraperitoneally, mouse tMCAO)?
Its value is 5 h.

And the “most effective dosage in an animal model of stroke” value ([5]; administered 3 h after stroke induction)?
The value was 0.03 µg/kg.

And the “protection in animal model of stroke” value ([5]; dose of 0.003 μg/Kg, compared with 0.03 μg/Kg)?
Its value is “less marked”.

What about the lipophilicity index [6] of the same molecule?
The lipophilicity index was “high lipophilicity index”.

And the toxicity [6]?
Its toxicity is “low toxicity”.

— PMC6497007, “Development, Validation of LC-MS/MS Method and Determination of Pharmacokinetic Parameters of the Stroke Neuroprotectant Neurounina-1 in Beagle Dog Plasma After Intravenous Administration” (Frontiers in Pharmacology, 2019)
